Values quoted from earlier work, collected in patent publication US20160107977A1, “METHODS OF SYNTHESIS OF INGENOL AND INTERMEDIATES THEREOF” (LEO LABORATORIES LIMITED, priority 2013, published 2016).

Columns and labels:
Epstein-Barr virus = conditions: lymphoblastoid cells; Keller et al. 1982
[1] = tested on: breast cancer cell line T47D; conditions: p53-mediated pathway, Vigone et al. 2005
[2] = tested on: breast cancer cell line MDA-MB-231; conditions: p53-mediated pathway, Vigone et al. 2005

Row | Compound | Epstein-Barr virus induction (Epstein-Barr virus) | antitumour activity [1] | antitumour activity [2]
1 | CCCCCCCCCCCCCCCC(=O)O[C@H]1C(C)=C[C@]23C(=O)[C@@H](C=C(CO)[C@@H](O)[C@]12O)[C@H]1[C@@H](C[C@H]3C)C1(C)C | most potent Epstein-Barr virus inducer | – | –
2 | CC1=CC23C(=O)C(C=C(COC(=O)c4ccccc4)C(O)C2(O)C1O)C1C(CC3C)C1(C)C (stereo not drawn) [ingenol-20-benzoate] | – | antitumour activity characterized by inhibition of cell growth and apoptotic cell death | antitumour activity characterized by inhibition of cell growth and apoptotic cell death
